{"source": "paper PMC5520944", "about": "(Cell Death & Disease, 2017)", "type_in_all_cases": "cell-based", "key": {"B-Raf": {"molecular_target": "T1, B-Raf (Mus musculus, UniProt P28028)", "T1 construct": "gene Braf; endogenous, L929sAhFas cell lysate", "T1 sequence (P28028 2-751)": "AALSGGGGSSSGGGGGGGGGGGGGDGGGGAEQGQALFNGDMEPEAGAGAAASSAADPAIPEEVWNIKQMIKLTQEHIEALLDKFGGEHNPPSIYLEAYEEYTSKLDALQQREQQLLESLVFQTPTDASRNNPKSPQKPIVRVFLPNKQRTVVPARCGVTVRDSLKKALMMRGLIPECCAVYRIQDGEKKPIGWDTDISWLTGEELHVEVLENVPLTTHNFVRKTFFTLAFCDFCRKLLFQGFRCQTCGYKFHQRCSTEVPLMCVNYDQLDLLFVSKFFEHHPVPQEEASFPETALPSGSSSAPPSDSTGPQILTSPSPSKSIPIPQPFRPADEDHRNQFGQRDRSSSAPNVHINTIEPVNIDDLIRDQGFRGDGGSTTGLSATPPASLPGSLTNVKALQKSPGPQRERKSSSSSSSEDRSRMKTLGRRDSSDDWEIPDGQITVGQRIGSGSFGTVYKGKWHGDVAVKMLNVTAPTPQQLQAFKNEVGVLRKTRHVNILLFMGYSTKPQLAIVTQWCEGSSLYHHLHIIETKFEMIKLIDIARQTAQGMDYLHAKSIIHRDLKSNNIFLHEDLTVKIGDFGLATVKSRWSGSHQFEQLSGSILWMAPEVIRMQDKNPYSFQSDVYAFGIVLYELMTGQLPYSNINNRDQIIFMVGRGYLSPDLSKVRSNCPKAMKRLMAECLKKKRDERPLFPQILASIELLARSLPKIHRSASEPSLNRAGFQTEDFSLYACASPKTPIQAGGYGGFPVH", "assay": "streptavidin pull down from cell lysate, immunoblot"}, "MLKL": {"molecular_target": "T2, MLKL (Mus musculus, UniProt Q9D2Y4)", "T2 construct": "endogenous, L929sAhFas and MEF cell lysates", "T2 sequence (Q9D2Y4 1-472)": "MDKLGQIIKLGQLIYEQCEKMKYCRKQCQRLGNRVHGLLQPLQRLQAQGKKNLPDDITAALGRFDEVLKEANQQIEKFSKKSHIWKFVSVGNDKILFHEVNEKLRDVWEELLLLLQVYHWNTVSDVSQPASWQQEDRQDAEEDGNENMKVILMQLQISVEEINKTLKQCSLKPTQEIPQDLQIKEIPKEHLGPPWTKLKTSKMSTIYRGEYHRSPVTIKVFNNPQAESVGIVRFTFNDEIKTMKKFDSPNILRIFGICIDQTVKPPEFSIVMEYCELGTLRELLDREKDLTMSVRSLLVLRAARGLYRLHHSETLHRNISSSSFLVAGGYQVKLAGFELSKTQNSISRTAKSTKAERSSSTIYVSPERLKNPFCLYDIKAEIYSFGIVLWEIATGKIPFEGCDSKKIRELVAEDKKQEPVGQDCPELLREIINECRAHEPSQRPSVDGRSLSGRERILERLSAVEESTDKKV", "assay": "streptavidin pull down from lysates, including RIPK1-/- and RIPK3-/- MEF"}, "RIPK3": {"molecular_target": "T3, RIPK3 (Mus musculus, UniProt Q9QZL0)", "T3 construct": "endogenous, L929sAhFas and MEF cell lysates", "T3 sequence (Q9QZL0 whole entry)": "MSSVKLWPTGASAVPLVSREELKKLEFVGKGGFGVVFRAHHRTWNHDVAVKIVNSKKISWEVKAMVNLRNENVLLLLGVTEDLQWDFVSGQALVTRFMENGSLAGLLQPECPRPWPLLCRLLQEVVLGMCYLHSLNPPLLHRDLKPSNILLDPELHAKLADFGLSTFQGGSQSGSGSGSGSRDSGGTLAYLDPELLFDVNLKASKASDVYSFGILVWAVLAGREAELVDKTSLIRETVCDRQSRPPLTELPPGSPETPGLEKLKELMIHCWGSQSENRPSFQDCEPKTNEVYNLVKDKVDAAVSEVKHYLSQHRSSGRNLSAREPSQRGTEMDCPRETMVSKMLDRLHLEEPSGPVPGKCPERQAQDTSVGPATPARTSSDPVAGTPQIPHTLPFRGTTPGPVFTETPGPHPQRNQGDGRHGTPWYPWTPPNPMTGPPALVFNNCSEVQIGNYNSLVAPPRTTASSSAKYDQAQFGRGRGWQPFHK", "assay": "streptavidin pull down from cell lysate, immunoblot"}, "RIPK1": {"molecular_target": "T4, RIPK1 (Mus musculus, UniProt Q60855)", "T4 construct": "endogenous, L929sAhFas and MEF cell lysates", "T4 sequence (Q60855 1-656)": "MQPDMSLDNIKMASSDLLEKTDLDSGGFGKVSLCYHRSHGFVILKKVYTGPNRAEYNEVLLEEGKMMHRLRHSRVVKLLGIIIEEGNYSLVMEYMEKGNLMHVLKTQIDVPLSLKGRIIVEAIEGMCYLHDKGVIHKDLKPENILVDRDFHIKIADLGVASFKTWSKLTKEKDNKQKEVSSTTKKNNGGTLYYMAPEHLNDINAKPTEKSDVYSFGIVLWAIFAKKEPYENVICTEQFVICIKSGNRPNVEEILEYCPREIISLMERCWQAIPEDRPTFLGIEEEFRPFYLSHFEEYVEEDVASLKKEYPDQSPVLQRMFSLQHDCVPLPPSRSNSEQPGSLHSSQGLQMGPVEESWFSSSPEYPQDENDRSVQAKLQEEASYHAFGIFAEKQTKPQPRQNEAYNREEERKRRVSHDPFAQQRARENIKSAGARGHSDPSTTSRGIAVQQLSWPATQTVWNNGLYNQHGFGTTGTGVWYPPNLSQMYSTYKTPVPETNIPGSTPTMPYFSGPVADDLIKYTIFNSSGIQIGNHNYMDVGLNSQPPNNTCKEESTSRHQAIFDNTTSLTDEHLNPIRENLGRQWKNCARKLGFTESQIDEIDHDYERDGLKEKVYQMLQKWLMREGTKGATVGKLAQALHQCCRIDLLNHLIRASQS", "assay": "streptavidin pull down from cell lysate, immunoblot"}}, "data": [{"smiles": "O=C(CCCC[C@@H]1SC[C@@H]2NC(=O)N[C@@H]21)NCCOCCOCCNC(=O)c1cc(Oc2ccc(NC(=O)Nc3ccc(Cl)c(C(F)(F)F)c3)cc2)ccn1", "note": "[compound 10, biotinylated Sorafenib]", "values": [{"measurement": "streptavidin pull down from cell lysate, immunoblot", "setting": "B-Raf", "result": "We show a dose-dependent pull down of RIPK1, RIPK3, MLKL and B-Raf"}, {"measurement": "streptavidin pull down from lysates, including RIPK1-/- and RIPK3-/- MEF", "setting": "MLKL", "result": "Sorafenib is likely to bind independently to RIPK1, RIPK3 or MLKL (Figure 4c), even in the absence of a necroptotic stimulus"}, {"measurement": "streptavidin pull down from cell lysate, immunoblot", "setting": "RIPK3", "result": "We show a dose-dependent pull down of RIPK1, RIPK3, MLKL and B-Raf"}, {"measurement": "streptavidin pull down from cell lysate, immunoblot", "setting": "RIPK1", "result": "We show a dose-dependent pull down of RIPK1, RIPK3, MLKL and B-Raf"}]}]}
